Assay results from publication PMC4370505 (PLoS ONE, 2015).

How the values were obtained:
[1] = In vitro metabolism in rat liver microsomes with UDPA; assay type: in vitro ADME; conditions: rat liver microsomes with UGT reaction mixture, 37°C
Protocol: Incubations of test substances in reaction mixtures without microsomes were used as a control. All samples were protected against light during the experiments.

[2] = Single dose intravenous pharmacokinetic study in Wistar rats; assay type: in vivo; conditions: 10 mg/kg
Protocol: Pharmacokinetic studies were conducted with male Wistar rats. Rats were acclimatized and housed at 22°C under 12h light/dark cycle with free access to sterilized commercial food pellets and water in the animal research facility (Curtin University) for at least 3 days prior to experiments. All animal experiments were approved by the Animal Ethics Committee of Curtin University (Approval no: R37–10 Amendment Approval No: A47–10 and A56–10) and were performed according to the Australian Code of Practice for the care and use of animals for scientific purposes. In order to minimize pain and suffering, the dosing and bleeding procedures were conducted under anesthesia (isoflurane at 5% for the induction and 2% for the maintenance, in combination with 1.5% oxygen). At the end of the study, rats were scarified by anesthetic euthanasia using 5% isofluorane with 1.5% oxygen. […] Blood (300 μL) was collected from the tail vein at 0.08, 0.5, 1, 2 and 4 hours into EDTA coated tubes. The blood samples were immediately stored in ice and protected from light until centrifuged (12000 × g at 4°C for 10 min). […] Metabolites were identified using LC-MS/MS (Applied Biosystems, 4000 QTRAP, Toronto, Canada).
Data analysis and representation (mean ± SD) were performed with SigmaPlot version 12 (Systat Software, Inc., Chicago, IL). Pharmacokinetic analysis was performed using Kinetica Version 5.0 (Thermo Fisher Scientific, Inc., Waltham, MA). Non compartmental analysis of the plasma concentration-time data was used to estimate the area under the curve (AUC0-∞; log-linear trapezoidal method), elimination half-life (t½), apparent clearance (CL; Dose÷AUC0-∞), mean residence time (MRT) and volume of distribution (Vss; CL×MRT). Statistical analysis of pharmacokinetic parameters was performed using unpaired t-test with Graphpad Prism software (version 6.05). Pharmacokinetic parameters obtained for each group were analyzed against the resveratrol group and p values were reported.

[3] = cited from earlier work
[4] = set-up: method as in PMID 18501919; conditions: cited from earlier work
[5] = Behaviour of conjugates in aqueous solution (solubility / self-aggregation); assay type: physicochemical; conditions: up to 10 mg/mL
Protocol: A solution of 40 mg of MeO-PEG-PLAO-Succ-RSV conjugate in acetonitrile (2 mL) was prepared. The stock solution was diluted with water (4 mL). The acetonitrile was removed by bubbling inert nitrogen gas at room temperature in the dark. The final volume of micellar/nanoparticle dispersion was adjusted to the required volume with water. For pharmacokinetic studies, final concentration of conjugate in micelle dispersion was 10 mg/mL and for critical micellear concentration measurement, the dispersion was diluted accordingly to obtain a series concentration of conjugate in solution below and above the CMC. The micelles of MeO-PEGO-Succ-RSV were formed spontaneously after dispersing in water.

[6] = Stability of resveratrol-polymer conjugates in physiological relevant buffers; assay type: physicochemical; conditions: phosphate buffer 0.1M pH 7.4, 37°C
Protocol: Briefly, reversed phase chromatographic separation was employed for analysis with xxx column. The HPLC gradient system consisted of solvent A, buffer pH 7.0 with triethyl amine-formic acid (0.05 and 0.2% v/v in water) and solvent B, methanol. A 30 min linear gradient was programmed as follows: 0 min 5% B, 4 min 20% B, 7 min 20% B, 16 min 55% B, 18 min 55% B, 18.5 min 95% B, 23 min 95% B, 24 min 5% B. The flow rate was maintained at 1 mL/min and the injection volume was 50 μL. The HPLC analysis was performed at ambient temperature. Altech Apollo C18 150 X 4.6 mm, 5μ column was employed for seperation. This HPLC method was validated to precisely separate and quantify the trans-resveratrol in the analyte mixture. There was at least two min difference in retention times for the trans and cis isomers of resveratrol. The UV spectrum of the trans isomer is very different from the cis isomer, thus any change to the trans isomer could have been detected. Although quantification was performed using the fluorescence detector at an excitation wavelength of 320nm and emission at 400 nm, simultaneous UV chromatograms were also recorded for specificity and peak purity purposes.
A similar procedure was used to study the stability of MeO-PEG-PLAO-Succ-RSV in buffers; micelles were prepared as per section 2.8 and diluted 1:5 with buffer solutions and incubated at 37°C. […]

[7] = Stability of resveratrol-polymer conjugates in rat plasma; assay type: in vitro ADME; conditions: 37°C
Protocol: The MeO-PEGN-Succ-RSV, 2 kDa, 20 kDa and MeO-PEGO-Succ-RSV 2 kDa (MW quoted in the paper is the size of polymer only. Mw for RSV is 228 Da) at the 10 mg/mL were incubated in plasma at 37°C. […] Aliquots of plasma (0.1 mL) were withdrawn at regular intervals and mixed with acetonitrile (0.9 mL). The mixtures were centrifuged at 10,000 rpm for 5 minutes. The supernatant (0.25 mL) was diluted with water (0.25 mL) and analysed by HPLC [28]. All samples were protected against light during the experiments.

[8] = DPPH inhibition assay (in vitro antioxidant); assay type: biochemical; conditions: DPPH 1 x 10^-4M in methanol, 30 min, room temperature
Protocol: Final concentration of DPPH was maintained at 1 x 10^-4M. […] After 30 min incubation at room temperature, the absorbance of these solutions was determined at 518 nm using a Hewlett Packard 8452A, UV-VIS spectrophotometer (Waldbronn, Germany). […] The IC 50 values were determined from the plot of % DPPH remaining against concentration of RSV and its equivalent conjugates.

[9] = male, Wistar, rat, plasma, mean ± SD

Molecule: Oc1ccc(/C=C/c2cc(O)cc(O)c2)cc1 [Resveratrol, trans-Resveratrol]
- Time within which almost all was metabolized [1]: ≤ 10 min
- Plasma concentration after two hours [2]: below the limit of detection
- CL ([2]; mean ± SD): 335 ± 140 mL/min/kg
- AUC(0-inf) [2, 9]: 2.4 ± 0.7 µM·h
- MRT [2, 9]: 1.3 ± 1 h
- Vd ([2]; male, Wistar, rat, plasma, mean ± SD, read-out: Vss): 26.8 ± 19.1 L/kg
- half-life ([2]; male, Wistar, rat, plasma, mean ± SD, read-out: t½ (converted)): 1.4 ± 0.9 h
- clearance ([2]; male, Wistar, rat, plasma, iv, mean ± SD): 333 mL/min/kg
- CL (previous reports) [3]: 183 to 317 mL/min/kg
- t½ (previous reports) [3]: 1.3 h

Molecule: CN(C)c1ccc(/N=N/c2ccccc2)cc1 [dimethyl yellow]
- Aqueous solubility [4]: 13 µg/mL

Molecule: MeO-PEG succinyl ester resveratrol [MeO-PEGO-Succ-RSV 2 kDa]
- Behaviour in aqueous solution [5]: self-aggregated into polymeric micelles
- % Conjugate Remaining at 24 hr pH 7.4 [6]: ~65%
- Plasma t1/2 ([7]; rat plasma in vitro): <5 min
- Intact conjugate detected by HPLC at initial time point ([7]; rat plasma, initial time point of 0 h): almost no intact polymer conjugate was detected

Molecule: α-methoxy poly(ethylene glycol)-co-polylactide succinyl ester resveratrol [MeO-PEG-PLAO-Succ-RSV 2 kDa]
- IC 50 DPPH inhibition [8]: similar

Molecule: α-methoxy-ω-carboxylic acid poly(ethylene glycol) succinylamide resveratrol [MeO-PEGN-Succ-RSV 2 kDa]
- IC 50 DPPH inhibition [8]: similar
